Tests used:
HEK293sieSTAT3(Y640F) [1] = test: drug sensitivity score (DSS), cytotoxicity CellTox Green (DSS (dimensionless)); higher = more cytotoxic; extreme values may be limits of the assay; conditions: 72 h; STAT3 variant: Y640F (constitutively active)
Method in brief: (§1)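 For 72 hours at 37°C and 5% CO2, HEK293 cells overexpressing wild-type or mutant STAT3 and carrying a STAT3-dependent luciferase reporter were cultured on compounds at 5 concentrations in 10-fold dilutions. CellTox Green and then CellTiter-Glo signals were read, normalised to negative and positive control wells, and converted in Breeze into a drug sensitivity score based on dose-response curve area. Values are from one representative of two experiments.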

HEK293sieSTAT3(wt) [2] = test: as above; conditions: 72 h; STAT3 variant: wild type
Method in brief: as §1

HEK293sieSTAT3(Y640F) [3] = test: drug sensitivity score (DSS), viability CellTiter-Glo (DSS (dimensionless)); higher = more growth inhibition; extreme values may be limits of the assay; conditions: 72 h; STAT3 variant: Y640F (constitutively active)
Method in brief: as §1

HEK293sieSTAT3(wt) [4] = test: as above; conditions: 72 h; STAT3 variant: wild type
Method in brief: as §1

Compound	drug sensitivity score (HEK293sieSTAT3(Y640F) [1])	drug sensitivity score (HEK293sieSTAT3(wt) [2])	drug sensitivity score (HEK293sieSTAT3(Y640F) [3])	drug sensitivity score (HEK293sieSTAT3(wt) [4])
COc1ccc(C[C@H](NC(=O)[C@H](C)NC(=O)CN2CCOCC2)C(=O)N[C@@H](Cc2ccccc2)C(=O)C2(C)CO2)cc1 (stereo in doubt) [ONX-0914] (top concentration tested 10000 nM)	18.6	19.9	19.9	21.7
Cc1ccc(C(=O)N(CCCN)[C@@H](c2oc3cc(Cl)ccc3c(=O)c2Cc2ccccc2)C(C)C)cc1 (top concentration tested 100 nM)	0.83	8.48	10.7	12.3
CCn1cc(-c2ccnc3[nH]c(-c4cccc(CN(C)C)c4)cc23)c(-c2ccc(NC(=O)N(C)C)cc2)n1 (top concentration tested 1000 nM)	0	0.19	4.73	5.64
CN1CCC(COc2cnc(-c3cccc(Cn4nc(-c5cccc(C#N)c5)ccc4=O)c3)nc2)CC1 (top concentration tested 1000 nM)	0	0	0	0
CNC(=O)c1ccc(C)c(-n2c(C)cc(OCc3ccc(F)cc3F)c(Br)c2=O)c1 (top concentration tested 1000 nM)	0	0	4.08	3.62
C[C@@H](Oc1ccc2[nH]nc(/C=C/c3cnn(CCO)c3)c2c1)c1c(Cl)cncc1Cl (top concentration tested 1000 nM)	0	0	6.64	5.39
C[C@H]1Oc2cc(cnc2N)-c2c(nn(C)c2C#N)CN(C)C(=O)c2ccc(F)cc21 (top concentration tested 1000 nM)	0	0	5.03	1.84
O=C(NOC[C@H](O)CO)c1ccc(F)c(F)c1Nc1ccc(I)cc1F (top concentration tested 1000 nM)	0	0	0	0
CCOc1ccn(-c2ccc(F)cc2)c(=O)c1C(=O)Nc1ccc(Oc2ccnc(N)c2Cl)c(F)c1 (top concentration tested 2500 nM)	0	0	0.75	4.83
Cc1cccc(CC(=O)N2CCc3c2ccc(-c2cn(C)c4ncnc(N)c24)c3F)n1 (top concentration tested 2500 nM)	0	0.89	0	0
OCCn1cc(-c2cnc3nnn(Cc4ccc5ncccc5c4)c3n2)cn1 (top concentration tested 2500 nM)	0	0.12	1.78	0
CNC(=O)c1ccccc1Nc1nc(Nc2ccc3c(c2OC)CCC[C@H](N2CCN(CCO)CC2)C3)ncc1Cl (top concentration tested 5000 nM)	0	6.35	7.82	9.3
Cc1ncc(Cl)cc1NCc1ccc(C(=O)N[C@@H](CC2CCCC2)C(=O)NC2CC2)s1 (top concentration tested 5000 nM)	0.4	0	4.24	0.63
CC(=O)NCC(=O)N1[C@@H]2CC[C@H]1c1ccc(Nc3ncc(C(F)(F)F)c(NC4CCC4)n3)cc12 (top concentration tested 10000 nM)	1.98	8.9	13.2	16.8
CC(C)CC(=O)Nc1n[nH]c2c1CN(C(=O)C1CCN(C)CC1)C2(C)C (top concentration tested 10000 nM)	4.64	19	12.4	13.4
CC(C)Oc1ccc(C(=O)N[C@H](CNC(=O)CN(C)C)Cc2ccc(-c3cn4cccc([C@H](C)O)c4n3)cc2)cc1Cl (top concentration tested 10000 nM)	2.45	11.4	14.7	15.3
CCn1c(-c2nonc2N)nc2c(C#CC(C)(C)O)ncc(OC[C@H]3CCCNC3)c21 (top concentration tested 10000 nM)	0.19	1.28	13.7	16.9
CCn1c(C(=O)N(C2CC2)C2CC2)cc2c3c(ncn3C)c(Nc3cc(C)n(C)n3)nc21 (top concentration tested 10000 nM)	0	0	0.09	0.76
CN(c1ncccc1CNc1nc(Nc2ccc3c(c2)CC(=O)N3)ncc1C(F)(F)F)S(C)(=O)=O (top concentration tested 10000 nM)	1.32	7.18	8.82	12

Compound	drug sensitivity score (HEK293sieSTAT3(Y640F) [1])	drug sensitivity score (HEK293sieSTAT3(wt) [2])	drug sensitivity score (HEK293sieSTAT3(Y640F) [3])	drug sensitivity score (HEK293sieSTAT3(wt) [4])
CNc1nc(-c2ccc3c(N)n[nH]c3c2)cc(N2C[C@@H](C(=O)NC3CCCCC3)CC[C@H]2C)n1 (top concentration tested 10000 nM)	0.35	0	1.37	4.33
COCC(=O)NC/C=C/c1ccc2ncnc(Nc3ccc(Oc4ccc(C)nc4)c(C)c3)c2c1 (top concentration tested 10000 nM)	0	2.66	1.25	3.61
COc1cc2ncnc(Oc3cccc(NC(=O)Nc4cc(C(C)(C)C(F)(F)F)on4)c3)c2cc1OC (top concentration tested 10000 nM)	0.44	0	1.53	2.4
COc1ccc(-c2cc3c(C)nc(N)nc3n([C@H]3CC[C@H](OCCO)CC3)c2=O)cn1 (top concentration tested 10000 nM)	0	2.91	20.1	23.3
CS(=O)(=O)N1CCc2c(-c3cnc(N)nc3)nc(N3CCOCC3)nc21 (top concentration tested 10000 nM)	0	5.98	12	15.5
C[C@@H](Oc1cc(-n2cnc3ccc(CN4CCN(C)CC4)cc32)sc1C(N)=O)c1ccccc1C(F)(F)F (top concentration tested 10000 nM)	15.3	37.4	37.9	36.5
C[C@@]1(C(=O)Nc2ccc(F)nc2)CCCN1c1nc(Nc2cc(C3CC3)n[nH]2)c2cccn2n1 (top concentration tested 10000 nM)	0.48	5.21	17.4	15.8
Cc1c(Cn2c(C)nc3c(C(=O)O)cc(N4CCOCC4)cc32)cccc1C(F)(F)F (top concentration tested 10000 nM)	0	0.07	0.96	3
Cc1c(NC(=O)OC[C@@H]2COCCN2)cn2ncnc(Nc3ccc4c(cnn4Cc4cccc(F)c4)c3)c12 (top concentration tested 10000 nM)	0.83	6.8	2.59	6.6
Cc1nc(Nc2n[nH]c3c2CN(C(=O)N[C@H](CN(C)C)c2ccccc2)C3(C)C)c2sccc2n1 (top concentration tested 10000 nM)	0.9	34	19.3	32.7
Cn1cc(-c2ccc3nnc(C(F)(F)c4ccc5ncccc5c4)n3n2)cn1 (top concentration tested 10000 nM)	0	0	0	3.09
Cn1cc(C2=Nc3cc(NC(=O)C(N)C4CCCCC4)cc4c3C2=CNNC4=O)cn1 (centres undefined) (top concentration tested 10000 nM)	2.57	5.91	17.5	15.8
Nc1nccc(-c2c(-c3ccc(F)cc3)ncn2C2CCCCC2)n1 (top concentration tested 10000 nM)	0	0	3.49	4.08
O=C(NOCC1CC1)c1ccc(F)c(F)c1Nc1ccc(I)cc1Cl (top concentration tested 10000 nM)	0	0	1.63	2.33
O=C(Nc1ccc2[nH]nc(-c3ccncc3)c2c1)[C@@H]1CCN(CC(=O)N2CCN(c3ccc(-c4ncccn4)cc3)CC2)C1 (top concentration tested 10000 nM)	0.69	0	3.37	1.44
O=C1NC(=O)/C(=C/c2ccc3nccc(-c4ccncc4)c3c2)S1 (top concentration tested 10000 nM)	0	3.49	15.4	11.3
Cc1ccc(C(=O)Nc2ccc(CN3CCN(C)CC3)c(C(F)(F)F)c2)cc1C#Cc1cnc2cccnn12 [Ponatinib] (top concentration tested 1000 nM)	–	–	6.74	9.83
CCC(C)(C)C(=O)O[C@H]1C[C@@H](C)C=C2C=C[C@H](C)[C@H](CC[C@@H]3C[C@@H](O)CC(=O)O3)[C@H]21 [Simvastatin] (top concentration tested 10000 nM)	–	–	0.89	3.28
